# From patent US20160193148A1, “LIPOSOMAL FORMULATIONS FOR THE TREATMENT OF BACTERIAL INFECTIONS” (UNIVERSITY OF GEORGIA RESEARCH FOUNDATION, INC., priority 2013, published 2016)
# Several values for one entry are separate records, joined by “and”; a condition that tells them apart may be missing. Equal values may be shown once. Marks after values point to notes of the source that are not given here.
# Assays:
# [1] = Repeated dose IV LG or FG: indices of renal injury and tolerability in foals
# Experimental: Subsequently, twelve healthy foals were administered either LG or FG at 6.6 mg/kg IV q 24 hours for 7 doses, and urinary protein, creatinine, γ-glutamyltransferase, and electrolytes were measured on days 0, 3 and 7 to quantify renal injury. Concentrations of gentamicin were measured using HPLC-MS.
# Each dose was diluted in 250 ml of sterile 0.9% saline and administered over 15 minutes via an indwelling 14 G catheter placed in a jugular vein. Blood samples for plasma separation and measurement of gentamicin concentrations were obtained on day 1 and on day 7 at the times listed for study 1. Bronchoalveolar lavage fluid was collected 2, 6 and 24 hours after the end of infusion on day 7. Urine was collected the day prior to the first drug dose (day 0) and again 2 hours after the end of the infusion on days 3 and 7. Foals were sedated with xylazine hydrochloride (1.1 mg/kg bwt IV) and anesthetized with ketamine (2.2 mg/kg bwt IV) to allow passage of a urinary catheter using aseptic techniques. Urinalysis was performed and urine and concurrently obtained plasma samples were submitted for measurement of creatinine, γ-glutamyltransferase (GGT), protein, calcium, chloride, magnesium, sodium, and potassium concentrations. Fractional excretion of electrolytes, urinary GGT to creatinine ratio, and urinary protein to creatinine ratios were calculated. Prior to analysis for gentamicin concentration by LC-MS, urine and plasma samples were centrifuged at 400×g for 10 minutes and the supernatant was frozen at −80° C. until assayed.
# Normality and equality of variance of the data were assessed with use of the Shapiro-Wilk and Levene tests, respectively. Data that were not normally distributed were log or rank transformed. The paired t test or the Wilcoxon rank sum test was used to compare IV pharmacokinetic variables between LF and FG. The effects of drug (LG vs FG), administration route (IV vs nebulized) and the interactions between drug and administration route on PELF and BAL cell pharmacokinetic variables were assessed using a two-way ANOVA for repeated measurement. For study 2, the effects of drug (LG vs FG), time (day 0, day 3, and day 7), and the interactions between drug and time on renal indices were assessed using a two-way ANOVA with one factor repetition (time). When warranted, multiple pairwise comparisons were done by use of the Holm-Sidak test. The paired t test or the Wilcoxon rank sum test was used to compare IV pharmacokinetic variables obtained on day 1 to those obtained on day 7. Significance was set at P<0.05.
# [2] = Plasma pharmacokinetics after single IV or nebulized dose in foals
# Experimental: Eight healthy 5-7-week-old Quarter Horse foals were randomly assigned to one of 4 groups using a balanced Latin-square design. Foals were considered healthy on the basis of physical examinations, complete blood cell counts and plasma biochemical profiles. […] The liposome gentamicin formulation was nebulized using Nortev FLEXINEB. For each treatment, gentamicin was administered over a period of 15 minutes. There was a washout period of 7-14 days between each treatment.
# For the BAL collection, foals were sedated with xylazine and butorphanol. Concentrations of gentamicin were measured in plasma and in bronchoalveolar cells using HPLC-MS.
# Eight foals received a single IV or nebulized dose (6.6 mg/kg bwt) of FG^h or LG in a balanced Latin square design. Beginning at 5-7 weeks of age, every foal received each of the 4 possible drug-route combinations with a 14-day washout period between each administration. Intravenous FG and LG were diluted in 250 ml of sterile 0.9% saline and administered via a jugular catheter as a constant rate infusion over 15 min. Nebulized FG and LG were administered by inhalation over 15 minutes via a commercial equine nebulizer. To ensure equivalent rate of delivery, FG was diluted to the same volume as LG with sterile 0.9% saline. Particle size of nebulized LG was verified using laser diffraction. Blood samples for plasma separation were obtained from a catheter placed in the contralateral jugular vein prior to each drug administration, and at 5, 10, 20, 30, 45 minutes and 1, 1.5, 2, 3, 4, 6, 8, 12, 16, 24 and 48 hours after the end of the 15 minute IV infusion or nebulization period. Bronchoalveolar lavage (BAL) fluid was collected at 2, 4, 8, 24, and 48 hours. Foals were sedated with xylazine hydrochloride (0.5 mg/kg bwt IV) and butorphanol tartrate (0.07 mg/kg bwt IV) prior to collection of BAL fluid. Prior to analysis for gentamicin concentration, blood samples were centrifuged at 400×g for 10 minutes and the resultant plasma frozen at −80° C. until assayed.
# Briefly, gentamicin was extracted from plasma (250 μl) and urine (500 μl) using protein precipitation with an equal volume of ice-cold 90:10 acetonitrile: 0.2% formic acid (v/v). Extracted samples were centrifuged (2° C. at 10,000×g for 10 min) twice. Two-hundred microliters of the supernatants were transferred to polypropylene inserts for injection. The supernatant derived from the lyzed BAL cell pellet was transferred to polypropylene inserts for direct injection without further processing. […] An aliquot of the resultant supernatant was then mixed with an equal volume of ice-cold acetonitrile, centrifuged (2° C. at 10,000×g for 10 minutes) and 200 μl was transferred to polypropylene inserts for injection. Calibration standards were prepared in drug-free foal plasma, BAL fluid or urine and then extracted as described above so that standard curves specific to each biologic matrix could be constructed. […] Analyte separation and LC-MS/MS measurement of gentamicin were performed exactly as described previously (Burton et al. (2013) Equine Vet J. 45, 507-511) except that BAL fluid samples, were introduced in the MS with a flow rate of 0.18 ml/minutes and a total run time of 8 minutes due to relatively low gentamicin concentration in those samples.
# For each foal, plasma, PELF, and BAL cell concentration versus time data were analyzed using commercial software. Noncompartmental analysis was used for PELF and BAL cell data.
# [3] = repeated daily IV dosing, 6 foals per group
# [4] = plasma, IV 6.6 mg/kg, 8 foals, Table 4
# [5] = plasma, IV 6.6 mg/kg, 8 foals, listed as FG, 6.6 mg/kg
substance,measurement,setting,value
gentamicin sulfate [Free Gentamicin],FE Ca^2+,[1]; Day 0 (before first dose),3.5 ± 3.4%
same,FE Cl^−,[1]; Day 0 (before first dose),0.60 ± 0.29%
same,FE K^+,[1]; Day 0 (before first dose),10.1 ± 4.9%
same,FE Mg^2+,[1]; Day 0 (before first dose),13.9 ± 8.91%
same,FE Na^+,[1]; Day 0 (before first dose),0.28 ± 0.4^a %
same,Plasma creatinine,[1]; Day 0 (before first dose),116.39 ± 20.48 µmol/L
same,USG (urine specific gravity),[1]; Day 0 (before first dose),1.003 ± 0.002
same,Urine pH,[1]; Day 0 (before first dose),7.2 ± 0.7
same,FE Ca^2+,[1]; Day 3,1.9 ± 1.1%
same,FE Cl^−,[1]; Day 3,0.6 ± 0.2%
same,FE K^+,[1]; Day 3,18.4 ± 12.2%
same,FE Mg^2+,[1]; Day 3,11.2 ± 6.5%
same,FE Na^+,[1]; Day 3,0.12 ± 0.05^a %
same,Plasma creatinine,[1]; Day 3,120.81 ± 21.41 µmol/L
same,USG (urine specific gravity),[1]; Day 3,1.008 ± 0.008
same,Urine pH,[1]; Day 3,6.3 ± 0.8
same,difference from baseline (day 0) in urine pH,[1]; Day 3,−0.83*
same,FE Ca^2+,[1]; Day 7,1.6 ± 1.4%
same,FE Cl^−,[1]; Day 7,0.78 ± 0.19%
same,FE K^+,[1]; Day 7,16.8 ± 10.6%
same,FE Mg^2+,[1]; Day 7,9.8 ± 4.7%
same,FE Na^+,[1]; Day 7,0.27 ± 0.12^b %
same,Plasma creatinine,[1]; Day 7,117.87 ± 24.79 µmol/L
same,USG (urine specific gravity),[1]; Day 7,1.002 ± 0.001
same,Urine pH,[1]; Day 7,6.3 ± 0.3
same,difference from baseline (day 0) in urine pH,[1]; Day 7,−1.67*
same,casts on urine sediment analysis,"[1]; day 7, 6 foals per group",One foal
same,mild self-limiting diarrhea during treatment,[1]; [3],One foal
same,thrombophlebitis,[1]; [3],2 foals
same,Plasma concentrations after nebulized administration,"[2]; nebulized 6.6 mg/kg, at most time points",570 ng/mL
same,A (intercept of the distribution phase),"[2]; plasma, IV 6.6 mg/kg, 8 foals",53.24 ± 25.83 µg/mL
same,AUC0-t,"[2]; plasma, IV 6.6 mg/kg, 8 foals",96700 ± 63800 ng·h/mL
same,AUC0-∞,"[2]; plasma, IV 6.6 mg/kg, 8 foals",98400 ± 64300 ng·h/mL
same,AUMC0-∞,"[2]; plasma, IV 6.6 mg/kg, 8 foals",360.2 ± 364.0 μg · h^2/ml
same,B (intercept of the elimination phase),"[2]; plasma, IV 6.6 mg/kg, 8 foals",2.50 ± 1.50 µg/mL
same,CL,"[2]; plasma, IV 6.6 mg/kg, 8 foals",1.42 ± 0.615 mL/min/kg
same,MRT,"[2]; plasma, IV 6.6 mg/kg, 8 foals",3.18 ± 1.25 h
same,t1/2α (distribution half-life),"[2]; plasma, IV 6.6 mg/kg, 8 foals",0.97 ± 0.45
same,α (rate constant of the distribution phase),"[2]; plasma, IV 6.6 mg/kg, 8 foals",0.82 ± 0.28 h⁻¹
same,β (rate constant of the elimination phase),"[2]; plasma, IV 6.6 mg/kg, 8 foals",0.12 ± 0.04 h⁻¹
same,C0.5 h,[2]; [4],71780 ± 92140 ng/mL
same,C48 h,[2]; [4],90 ± 90 ng/mL
same,t1/2β,"[2]; plasma, IV 6.6 mg/kg, 8 foals, Table 4, listed as FG, 6.6 mg/kg",6.2 ± 1.8 h and 6.20 ± 1.77 h
same,C1 h,[2]; [5],32600 ± 25280 ng/mL
same,C24 h,[2]; [5],250 ± 190 ng/mL
same,C0.5 h,"[2]; plasma, IV 6.6 mg/kg, Table 1",71800 ± 92100 ng/mL
same,C48 h,"[2]; plasma, IV 6.6 mg/kg, Table 1",100 ± 90 ng/mL
same,t1/2β,"[2]; plasma, IV 6.6 mg/kg, Table 1, 6.6 mg/kg",6.2 ± 1.8 h
same,t1/2β,"[2]; plasma, IV 6.6 mg/kg, Table 1, listed as free gentamicin, 6.6 mg/kg",6.2 ± 1.8 h
